Measured values as given in patent publication US8722608B2, “Process of bleaching” (Conopco, Inc., priority 2005, dated 2014).

Legend:
[1] = Stability of aqueous catalyst salt solutions (UV/Vis of 1000× diluted solutions); type: physicochemical; settings: 2 weeks; for precipitate formation: pH 2 to 5, 37° C.
Procedure: Stability of aqueous solutions of chloride, sulphate and acetate salts are provided. Solutions of the bleach catalyst with chloride, sulphate and acetate anion were brought to pH 2, 3, 4 and 5 by hydrochloric acid, sulphuric acid and acetic acid respectively. For the acetate this could only give pH 5. For the lower pH values sulphuric acid was used in the case of acetate. The solutions were kept at 37° C. and after 2 weeks the stability was monitored from the absorptions in the UV/Vis spectra of 1000× diluted solutions.

[2] = Bleaching of softwood D0 pulp with H2O2 and catalyst, whiteness; settings: 2.5 microM catalyst, 10 kg/t H2O2, 8 kg/t NaOH, 50° C., 1 h, 5% consistency; SD 0.3 points
Procedure: Softwood chemical mill pulp obtained after the D0 bleaching stage (abbreviated as softwood D0 pulp) was used. The bleaching experiments were conducted on small scale in 100 ml vessels using the pulps at 5% consistency (i.e., 5% oven dry wood pulp; 95% aqueous bleaching liquor). The mixture contained 2.5 microM of the catalyst (as chloride, sulfate, acetate and PF6 salts—see Table), 1 kg/t of MgSO4, 8 kg/t of NaOH and 10 kg/t of H2O2 (kg/t: kg chemicals per ton oven dry pulp). The mixture was manually stirred to ensure good distribution of the bleaching chemicals. Then the vessel was placed in a water bath and stirred regularly at 50° C. for 1 h. All experiments were carried out at least 6 times. As a reference the experiment was conducted without catalyst. The dosages and exact reaction conditions are given in the sections below. After the allocated bleaching times the pulp batches were removed from the vessels, filtered using a Buchner funnel, and washed with 100 ml of water. From the resultant samples of bleached pulp 4×4 cm discs were made having a flat surface on one side. The softwood D0 pulp samples were dried using a L&W Rapid Dryer (Lorentzen and Wetter) at 90° C. for 20 minutes. Whiteness of the bleached pulps was determined using L, a*, b* values as defined by CIE (Commission Internationale de l'Eclairage) of the dried pad was measured using a Minolta spectrophotometer.

[3] = Solubility in water at 20° C.; type: physicochemical

| Structure (SMILES) | % (UV/Vis) remaining ([1]; pH 2, 37° C.) [%] | precipitate formation [1] | % (UV/Vis) remaining ([1]; pH 3, 37° C.) [%] | % (UV/Vis) remaining ([1]; pH 4, 37° C.) [%] | % (UV/Vis) remaining ([1]; pH 5, 37° C.) [%] | Whiteness [2] | solubility in water [3] | water solubility [3] [g per liter] |
| --- | --- | --- | --- | --- | --- | --- | --- | --- |
| CN1CCN(C)CCN(C)CC1.CN1CCN(C)CCN(C)CC1.O=S(=O)([O-])[O-].[Mn+4].[Mn+4].[O-2].[O-2].[O-2] [[Mn2O3(Me3—TACN)2]•SO4, [Mn2O3(Me3-TACN)2].SO4] | 78 | (Precipitate only at pH = 5) | 96 | 94 | 98 | 84.1 |  |  |
| CC(=O)[O-].CC(=O)[O-].CN1CCN(C)CCN(C)CC1.CN1CCN(C)CCN(C)CC1.[Mn+4].[Mn+4].[O-2].[O-2].[O-2] [[Mn2O3(Me3—TACN)2]•(OAc)2, [Mn2O3(Me3-TACN)2].(OAc)2] | 87 | (No precipitate is formed) | 91 | 93 | 95 | 84.0 | more than 70 gram/Liter |  |
| CN1CCN(C)CCN(C)CC1.CN1CCN(C)CCN(C)CC1.[Cl-].[Cl-].[Mn+4].[Mn+4].[O-2].[O-2].[O-2] [[Mn2O3(Me3—TACN)2]•Cl2, [Mn2O3(Me3-TACN)2].(Cl)2] | 100 | (Precipitate is formed at all pH's) | 100 | 97 | 94 | 84.3 |  |  |
| CN1CCN(C)CCN(C)CC1.CN1CCN(C)CCN(C)CC1.F[P-](F)(F)(F)(F)F.F[P-](F)(F)(F)(F)F.[Mn+4].[Mn+4].[O-2].[O-2].[O-2] [[Mn2O3(Me3—TACN)2]•(PF6)2, [Mn2O3(Me3-TACN)2].(PF6)2] |  |  |  |  |  | 84.4 | 1.08 % (w/w) | 10.8 |
